These results are taken from patent publication US20260335456A1, “ANTIBODY-DRUG CONJUGATE HAVING CAMPTOTHECIN-BASED DRUG LINKED TO ANTIBODY HAVING LOW ANTIGEN-BINDING AFFINITY THROUGH LINKER” (PINOTBIO, INC., priority 2022, published 2026).

The subject of series [1] is A549 cell line. In words: Western blot of DDX5 and anti-apoptotic proteins in A549. In kind it is cell-based. As to conditions: for DDX5 degradation ranking: FaDu and A549, 0, 10, 100 nM. (Immunoblotting shows a protein as a band on a membrane.)
In series [2] the test system is FaDu cell line. Nature of the series: Western blot of DDX5 and anti-apoptotic proteins in FaDu. In kind it is cell-based. Conditions: 0, 10, 100 nM; for DDX5 degradation ranking: FaDu and A549; for expression of anti-apoptotic proteins: Survivin, cIAP2, Mcl-1, XIAP, 24 hours. How it is done:
1-1: Confirmation of Suppressive Activity of Expression of Cancer-Related Survival Genes of DDX5, Survivin, Mcl-1, XIAP and cIAP2 Through Western Blot
200,000 FaDu cell lines were seeded per well in a 6-well plate and incubated at constant temperature (37 °C, 5% CO2). […] It was incubated at constant temperature (37 °C, 5% CO2) for 24 hours. The well was treated with 100 μL of RIPA buffer dissolved in protease inhibitor cocktail. […] Protein concentration was determined through protein assay.
Electrophoresis was performed on the gel at 60V.
7 sheets of activated filter paper, PVDF membrane, gel and 7 sheets of filter paper were placed in order in the cassettes of the Trans-Blot® Turbo™ Transfer System, and the lid was closed, and after being inserted into the machine, the protocol started.
The transferred membrane was immersed in blocking buffer and incubated at constant temperature (RT, 1h). Next, it was incubated at 4 °C overnight in primary antibody solution. It was rinsed with TBST buffer for 3 minutes (repeated 3 times). Incubation was performed (RT, 1h) in a secondary antibody solution conjugated with HRP. It was rinsed with TBST buffer for 3 minutes (repeated 3 times).
After soaking the membrane in the ECL substrate for 3 to 5 minutes, the signal was determined by using the ChemiDoc™ MP Imaging System.

In series [3] the test system is A549. In words: Cell viability assay in A549. In kind it is cell-based. Conditions: for efficacy / IC50 in ABCG2-overexpressing cells: A549, FIG. 9. How it is done: (§1) After 24 hours, 100 μL of the drug at 9 concentrations (serial dilution of 1/5 from 1,000 nM) was treated with the cells. […] In this case, a control group that was not treated with the drug (drug concentration 0) was also prepared. It was cultured at constant temperature (37 °C, 5% CO2) for 3 or 6 days. 100 μL of CellTiter-Glo reagent (using CellTiter-Glo® Luminescent Cell Viability Assay kit (Promega, G7571)) was added to each well and pipetted. After incubation at constant temperature (RT) for 10 minutes, luminescence was measured.

Series [4] deals with T1, ABCG2 (Homo sapiens, UniProt Q9UNQ0).
T1 sequence (Q9UNQ0 1-655): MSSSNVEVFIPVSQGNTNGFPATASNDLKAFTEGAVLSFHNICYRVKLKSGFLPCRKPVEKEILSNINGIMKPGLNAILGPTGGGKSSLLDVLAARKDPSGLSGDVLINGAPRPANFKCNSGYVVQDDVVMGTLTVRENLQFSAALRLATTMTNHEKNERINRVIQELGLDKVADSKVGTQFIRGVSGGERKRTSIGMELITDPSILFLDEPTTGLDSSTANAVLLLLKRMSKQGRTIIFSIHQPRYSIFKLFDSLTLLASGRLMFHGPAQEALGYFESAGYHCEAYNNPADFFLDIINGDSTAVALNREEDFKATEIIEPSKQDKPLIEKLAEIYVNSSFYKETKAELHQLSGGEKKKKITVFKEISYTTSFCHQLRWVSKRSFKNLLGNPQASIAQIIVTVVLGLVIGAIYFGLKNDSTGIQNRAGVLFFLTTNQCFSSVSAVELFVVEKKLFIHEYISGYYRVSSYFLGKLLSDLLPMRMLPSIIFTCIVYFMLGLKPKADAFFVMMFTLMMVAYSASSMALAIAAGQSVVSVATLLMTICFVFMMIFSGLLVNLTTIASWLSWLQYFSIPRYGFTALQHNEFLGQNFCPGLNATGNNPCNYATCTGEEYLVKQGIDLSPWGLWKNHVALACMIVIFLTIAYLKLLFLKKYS
Nature of the series: Sensitivity to ABCG2 transporter. In kind it is cell-based.

Series [5] has as its target DDX5 protein (Homo sapiens, UniProt P17844). In words: DDX5 degradation by camptothecin drugs. In kind it is cell-based. As to conditions: FIGS. 7 to 10.
The nature of series [6]: Lactone to carboxylate form conversion in pH 7.4. Conditions: for rate of conversion from lactone to carboxylate form / degraded at 3 µM: pH 7.4, 37 °C; for degraded at 3 µM: PBS with 10% DMSO, read-out: carboxylate form formed; for lactone to carboxylate conversion versus reference compounds: pH 7.4, reference: exatecan, DXd, SN-38, FL118. It is filed as physicochemical. How it is done: 3-2. Lactone to Carboxylate Form Conversion in pH 7.4
Afterwards, it was centrifuged at 4 °C, 2 minutes, and 13,000 RCF conditions, and the supernatant was used as a sample.
The column used was Cortecs C18 2.7 μm, 4.6×50 mm Column, and analysis was conducted under the following conditions. 1) 20 minutes: 5% B, 2) sample injection, 3) 2 minutes: 5% B, 4) 10 minutes: 5% B→50% B, 5) 1 minute: 50% B.
In order to measure changes over time, the sample chamber was maintained at 37 °C, and the sample was set to be injected every measurement time. The measurement times were 0, 20, 40, 60, 90, 120, 180, 240, 300, 360, 480, 600 and 720 minutes.
The content was calculated from the peak area of each lactone and carboxylate. Since the absorption coefficients of lactone and carboxylate are different, the lactone area was obtained by multiplying the carboxylate area by the equation below.

Series [7] addresses DNA topoisomerase I (Homo sapiens, UniProt P11387). As to conditions: versus SN-38 and topotecan; cited from earlier work.
Series [8] deals with in vitro cytotoxicity. Nature of the series: In vitro cytotoxicity of FL118, exatecan versus SN-38. Conditions: FIG. 5. It is filed as cell-based.
Series [9] has as its system various cancer cells. As to conditions: resistance due to expression of P-glycoprotein; cited from earlier work.
Series [10] relates to HCT-8 and FaDu cell lines. In words: Western blot of anti-apoptotic proteins in HCT-8 and FaDu. It is filed as cell-based. As to conditions: FIG. 6. The source says:
GAPDH is an enzyme involved in glycolysis, which is an essential metabolic process in cells.

Series [11] has as its system cancer cell line Xenograft models. Nature of the series: FL118 xenograft and human tumor animal model efficacy. It is filed as in vivo. The source says:
Genetic manipulation of DDX5 in PDAC cells affects tumor growth.
(§2) Meanwhile, camptothecin-based anticancer drugs show excellent anticancer responses initially when used in patients, but strong resistance to these drugs appears through Epigenetic Silencing of the Top1 gene and Top2 Dependence of cancer cells.

Series [12] is described as follows: FL118 pharmacokinetics and tumor accumulation. In kind it is in vivo. The source says:
For example, when applying ADC, maximum selectivity between tumor tissue and normal tissue is ensured.

The subject of series [13] is cancer cell line Xenograft models. Conditions: cited from earlier work.
The test system of series [14] is PDAC cells with DDX5 KO. As to conditions: cited from earlier work.
Series [15] deals with rats and beagle dogs. Nature of the series: FL118 GLP-toxicity tests. It is filed as in vivo. As to conditions: GLP-toxicity tests in rats and beagle dogs.
Description: as §2

The test system of series [16] is FaDu. In words: Cell viability assay in FaDu. It is filed as cell-based. How it is done:
as §1

In series [17] the test system is MDA-MB-468 tumor model. In words: In vivo efficacy in MDA-MB-468 model (EGFR ADCs). Also on record: species or system mouse.
Description: Cells growing in exponential growth phase were harvested and counted for tumor inoculation.
MDA-MB-468 cells (1×10^7) in 0.2 mL of DPBS with Matrigel were inoculated subcutaneously into the right anterior flank of each mouse. When the average tumor volume reached approximately 215 mm^3, animals were randomly grouped, and then, treatment for drug efficacy studies was initiated.
During routine monitoring, normal behavior such as mobility, food and water consumption (observation only), body weight changes (weighed twice weekly), eye/hair mailing, tumor growth and effectiveness of treatment were checked in animals every day. Deaths and observed clinical signs were recorded based on the number of animals in each subset.
The primary endpoint was determined as a time point when tumor growth could be delayed or the mice could be cured. The two-dimensional size of the tumor was measured twice weekly using a caliper, and the volume was expressed in mm^3 using the equation (V=0.5 a×b^2, where a and b are the long and short diameters of the tumor, respectively).
Tumor growth inhibition (TGI) was calculated for each group.
TGI (%)=[1−(Ti/T0)/(Vi/V0)]×100 […]

Chain of DDX5 protein (P17844 whole entry): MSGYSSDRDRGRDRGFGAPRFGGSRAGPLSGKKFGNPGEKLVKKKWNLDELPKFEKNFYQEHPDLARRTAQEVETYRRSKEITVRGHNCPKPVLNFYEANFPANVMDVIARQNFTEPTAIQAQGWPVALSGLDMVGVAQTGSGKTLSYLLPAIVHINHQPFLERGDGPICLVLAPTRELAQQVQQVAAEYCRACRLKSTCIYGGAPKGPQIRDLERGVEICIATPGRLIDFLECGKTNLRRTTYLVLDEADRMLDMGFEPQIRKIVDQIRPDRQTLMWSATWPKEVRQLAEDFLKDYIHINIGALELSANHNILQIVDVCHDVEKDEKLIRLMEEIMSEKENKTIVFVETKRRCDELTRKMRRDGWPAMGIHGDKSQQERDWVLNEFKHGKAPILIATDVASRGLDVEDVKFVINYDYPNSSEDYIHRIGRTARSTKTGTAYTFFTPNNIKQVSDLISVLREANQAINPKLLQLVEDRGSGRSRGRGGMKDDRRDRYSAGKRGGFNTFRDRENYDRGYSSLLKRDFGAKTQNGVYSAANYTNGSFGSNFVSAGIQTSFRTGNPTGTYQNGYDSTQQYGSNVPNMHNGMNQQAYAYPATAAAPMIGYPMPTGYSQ
Chain of DNA topoisomerase I (P11387 whole entry): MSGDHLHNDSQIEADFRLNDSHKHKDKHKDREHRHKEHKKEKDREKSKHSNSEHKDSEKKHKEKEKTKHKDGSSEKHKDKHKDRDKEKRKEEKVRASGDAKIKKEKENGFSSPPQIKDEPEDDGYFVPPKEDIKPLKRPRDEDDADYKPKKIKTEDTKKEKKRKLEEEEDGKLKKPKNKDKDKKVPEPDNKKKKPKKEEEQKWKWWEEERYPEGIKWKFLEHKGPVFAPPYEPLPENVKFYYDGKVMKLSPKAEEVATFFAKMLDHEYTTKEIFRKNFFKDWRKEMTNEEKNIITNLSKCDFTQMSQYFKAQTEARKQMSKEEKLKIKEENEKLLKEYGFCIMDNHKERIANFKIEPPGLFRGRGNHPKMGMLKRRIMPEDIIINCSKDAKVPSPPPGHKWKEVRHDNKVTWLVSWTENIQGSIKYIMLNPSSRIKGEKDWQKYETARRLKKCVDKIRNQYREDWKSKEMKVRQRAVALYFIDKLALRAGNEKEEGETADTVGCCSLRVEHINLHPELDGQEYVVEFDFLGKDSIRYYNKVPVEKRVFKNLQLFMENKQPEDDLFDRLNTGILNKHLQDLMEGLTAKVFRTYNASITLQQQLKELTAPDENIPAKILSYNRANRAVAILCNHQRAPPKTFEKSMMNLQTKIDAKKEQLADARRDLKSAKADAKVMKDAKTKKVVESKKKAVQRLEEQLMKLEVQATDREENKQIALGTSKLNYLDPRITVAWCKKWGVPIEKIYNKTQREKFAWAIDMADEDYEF

`CC[C@@]1(O)C(=O)OCc2c1cc1n(c2=O)Cc2c-1nc1cc3c(c4c1c2[C@@H](N)CC4)OCO3` (single isomer, unassigned) [PBX-7011]: the DDX5 degradation ranking entry in series [1] is “followed by 7011, 7016 and 7014”. Further, in series [2], the DDX5 degradation ranking result was “followed by 7011, 7016 and 7014”; the “expression of anti-apoptotic proteins” value was “decrease in the expression of Survivin, cIAP2, Mcl-1 and XIAP as the concentration increased”.
In the case of `CC[C@@]1(O)C(=O)OCc2c1cc1n(c2=O)Cc2c-1nc1cc(F)c(C)c3c1c2[C@@H](NC(=O)CO)CC3` [Dxd, reference compound], the “efficacy / IC50 in ABCG2-overexpressing cells” value in series [3] was “increased IC50 values”. The “sensitivity to ABCG2” value in [4] is recorded as “strongly influenced by ABCG2”. In addition, in series [5], the “DDX5 degradation mechanism of action” value is on record as “exerts a mechanism of action (MoA) to degrade DDX5 protein”. Further, in series [6], the “rate of conversion from lactone to carboxylate form” value worked out at 0.6 % per minute and the degraded at 3 µM was 76.5%.
Take `CC[C@@]1(O)C(=O)OCc2c1cc1n(c2=O)Cc2c-1nc1cc(F)c(C)c3c1c2[C@@H](N)CC3` [Exatecan]: the “type I topoisomerase inhibitory activity” value in series [7] is recorded as “stronger type I topoisomerase inhibitory activity than SN-38”. Further, the “sensitivity to ABCG2” value in series [4] was “almost unaffected by ABCG2”. In addition, the “in vitro cytotoxicity versus SN-38” value in series [8] is reported as “better efficacy against in vitro cytotoxicity compared to SN-38”. For the same compound, the “DDX5 degradation mechanism of action” value in [5] was “exerts a mechanism of action (MoA) to degrade DDX5 protein”. In series [9], the “effect on cancer cells resistant to SN-38 and other drugs” value is given as “effective against cancer cells that are resistant to SN-38”. Moreover, the “downregulating tumor proteins versus SN-38” value in series [10] is “better efficacy in downregulating tumor proteins compared to the SN-38 drug”.
With `CC[C@@]1(O)C(=O)OCc2c1cc1n(c2=O)Cc2cc3cc4c(cc3nc2-1)OCO4` [FL118, 10, 11-methylenedioxy-camptothecin], the “xenograft efficacy, Top1 not expressed” value in [11] (Epigenetic Silencing or Knock-out of Top1) is reported as “strong efficacy”. The “anticancer efficacy after SN-38 resistance” value in series [11] (after inducing SN-38 resistance in tumor xenograft) is “strong anticancer efficacy”. Further, in series [11] (same amount as SN-38, colon, head and neck, pancreatic cancer), the tumor regression efficacy entry was “stronger tumor regression efficacy than SN-38”. Moreover, in series [11] (versus SN-38 in various cancer cell line Xenograft models), the xenograft efficacy result is “superior efficacy compared to SN-38”. Also, the “accumulation in cancer tissue” value in series [12] (immediately after administration) is “accumulates quickly in cancer tissue”. For the same compound, the blood clearance result in series [12] (systemic administration alone) is “rapidly metabolized and excreted from the blood”. The “sensitivity to ABCG2” value in series [4] is “not affected by the ABCG2 Transporter”. Also, the DDX5 degradation ranking entry in [1] and in series [2] was “superior to other substances” each time. In addition, the “efficacy in eliminating human PDAC and CRC tumors, high DDX5 expression” value in series [13] (high DDX5 expression) is on record as “high efficacy”. Also, in series [13] (low DDX5 expression), the “efficacy in PDAC and CRC tumors, low DDX5 expression” value is given as “less effective”. In addition, the “in vitro cytotoxicity versus SN-38” value in series [8] is recorded as “better efficacy against in vitro cytotoxicity compared to SN-38”. Further, in [5], the “DDX5 degradation mechanism of action” value is recorded as “directly binds to the tumor protein DDX5”. The “sensitivity of DDX5 KO cells” value in [14] is reported as “resistant”. Moreover, in series [10], the “downregulating tumor proteins versus SN-38” value is “better efficacy in downregulating tumor proteins compared to the SN-38 drug”. In series [15], the safety entry is “excellent safety”.
Regarding `CC[C@@]1(O)C(=O)OCc2c1cc1n(c2=O)Cc2c-1nc1cc3c(c4c1c2[C@@H](NC(=O)CO)CC4)OCO3` [PBX-7014], in [1], the “dual mechanism (topoisomerase I inhibition and DDX5 degradation)” value is on record as “dual MoA that acts as a degrader of DDX5 (p68)”; the DDX5 degradation ranking result was “followed by 7011, 7016 and 7014”. Also, in [2], the DDX5 degradation ranking entry is “followed by 7011, 7016 and 7014”; the “expression of anti-apoptotic proteins” value was “decrease in the expression of Survivin, cIAP2, Mcl-1 and XIAP as the concentration increased”. In addition, in series [6], the “rate of conversion from lactone to carboxylate form” value was 0.8 % per minute; the degraded at 3 µM was more than 86%; the “lactone to carboxylate conversion versus reference compounds” value was “faster and at a higher rate than other reference compounds”.
For the compound `CC[C@@]1(O)C(=O)OCc2c1cc1n(c2=O)Cc2c-1nc1cc3c(c4c1c2[C@@H](NC(=O)[C@@H](O)C1CC1)CC4)OCO3` [PBX-7024], the “efficacy / IC50 in ABCG2-overexpressing cells” value in [3] is recorded as “still maintained strong efficacy”. For the same compound, the apoptosis effect result in series [3] (A549, overexpresses ABCG2, 3 days) is “strong apoptosis effect”; in [16] (does not express ABCG2, 3 days), “strong apoptosis effect”. For the same compound, the “IC50 compared to Dxd” value in series [3] (FaDu and A549, 3 days, FIG. 9) is “IC50 of an equal or higher level compared to Dxd”; in [16] (3 days, FIG. 9) it was “IC50 of an equal or higher level compared to Dxd”. Besides, the “sensitivity to ABCG2” value in series [4] is reported as “not affected by ABCG2”. In addition, the “lactone to carboxylate conversion versus reference compounds” value in series [6] is “faster and at a higher rate than other reference compounds”.
For the compound “Nimotuzumab-CL2A-FL118: nimotuzumab ADC with CL2A-FL118 (Example 4)”, the efficacy result in [17] (1 mpk, 5 mpk and 10 mpk, versus cetuximab-based ADC) is listed as “better efficacy”. For the same compound, the “in vivo efficacy versus Cetuximab-CL2A-FL118” value in series [17] (FIG. 22) is “better efficacy compared to Cetuximab-CL2A-FL118”.
